Test results: patent US20260159474A1, “Aminoindane Compounds and Compositions and Methods of Their Therapeutic Use” (Solvonis Therapeutics Ireland Holdings Limited, priority 2021, published 2026)
Where two headings read alike, the source gives them in different places.

Tests used:
CYP3A4 = biological target: T1, CYP3A4 (Homo sapiens, UniProt P08684); assay: CYP450 inhibition, fluorescent probe substrate; assay type: in vitro ADME
T1 construct: purchased Life Technologies P2377; host or cells: Baculosomes
Description: Methods: Recombinant human CYP450 isoenzymes were used to metabolize pro-fluorescent probe substrates to fluorescent products. IC50 values determined from the effect of test compounds on the metabolism of these probe substrates were then used to determine inhibitory potency against CYP450 isoforms. The chemical reagents included:
The test system was based on a three-step procedure with a “mix and read” format, where reaction and reading were performed at 37° C. The assays described herein measure in vitro inhibitory effects (pIC50) of compounds on the human P450 isoforms (1A2, 2B6, 2C8, 2C9, 2C19, 2D6, 3A4) expressed in recombinant microsomes. Pro-fluorescent probe substrates were metabolized to fluorescent products by the enzymes. Fluorescence was measured in kinetic mode (1 read/minutes for 10 minutes), and the fluorescence rate was calculated.
Inhibition of the fluorescent signal resulting from P450 activation indicated inhibitory activity and facilitated calculation of the compound pIC50. A quality check was included in each compound plate, wherein the signal window was monitored by performing Z′ calculations ([…] ) and the antagonist potency of internal standards was within the pIC50±2SD range. Concentration response curves (CRCs) of compounds were run on two different test occasions (n 2) by preparing serial dilutions from the same compound stock solution.
To prepare the compound plate, test compounds serial dilutions 1 to 3 were performed from a 10 mM stock solution in DMSO by Biomek FX to generate 10 point CRC with the highest concentrations in columns 3 and 13.
100% DMSO was placed in columns 1 and 2 and used for assay low controls. CYP inhibitor (10 mM miconazole solution in DMSO) was placed in columns 23 and 24 and served as an assay high controls. 1 μL copy plates were then stamped into V-bottom drug plates at a concentration that is 200 fold the final assay concentration. The copy plates were diluted prior to the experiment with assay buffer to reach 4 times the final assay concentration (2% w/v DMSO).
A reference compound (e.g., miconazole) was included in each compound plate in row A, column 3 and 13. The reference compound was diluted and stamped together with test compounds. The final concentrations of the 10 point CRCs of test compounds in the assay plate were 5.00E-05; 1.67E-05; 5.56E-06; 1.85E-06; 6.17E-07; 2.06E-07; 6.86E-08; 2.29E-08; 7.62E-09 and 2.54E-09, respectively. All solutions were prepared immediately before the assay.
Microsomes were added to the buffer prior to the substrate addition. The solution was carefully mixed without vortexing. 30 μL/well of the mixture was then transferred to the assay plate (384-well black plate) using a 16-channel pipette. For each P450 isoformn, a separate plate was prepared and labeled with a barcode. For fluorescence measurement, 10 μL/well of the test compounds were transferred from the compound plate to the assay plate using Biomek FX and the appropriate protocol. The assay plate was then incubated at 37° C. for 10 minutes on a shaker to allow for the interaction between compounds and enzymes.
10 μL/well of the cofactor was then added to the assay plate using the Multidrop before placing the assay plate in the plate reader EnVision to measure fluorescence. The overall final DMSO concentration for the assay was 0.5%. Plates were read every minute for 10 minutes, according to a P450 isoform specific protocol, as shown below.
The CYP3A4 and CYP2C8 were assayed using the Vivid CYP3A4 Baculosomes, CYP2C8 Baculosomes and Vivid DBOMF Substrate (Life Technologies, cat. P2377, PV6138 and P2974 respectively), while 2B6 is tested by Vivid CYP2B6 Baculosomes and Vivid BOMCC Substrate (Life Technologies, cat. P3028 and P2975). Test compounds were prepared as specified above. […]

[1] = Intrinsic clearance in rat liver microsomes; assay type: in vitro ADME; settings: for microsomal CLint at 0.5 μM: pH 7.4, read-out: Cl (μL/min/mg protein) - Rat Microsomes
Description: Methods: The general procedure involved incubating test compounds with liver microsomes and subsequently detecting the compounds to determine intrinsic clearance. Clearance was estimated from the rate of depletion k (min-1), the volume of the incubation V (mL), and the amount of microsomal proteins in the incubation M (mg). Intrinsic clearance is defined by the following equation: Clint=k*V/M.
Values for CLint are expressed as μL/min/mg liver microsomes. Verapamil and dextromethorphan were used as positive controls for CYP3A4 and CYP2D6 isoforms, respectively, to confirm metabolic activity. Stock solutions were prepared in DMSO for therapeutic compounds and positive controls verapamil and dextromethorphan (10 mM for all). Working solutions were prepared by diluting stock in MeOH to reach […]. However, this concentration can be varied, e.g., when the test item is not soluble in the selected solvent.
Prior to experimentation, frozen liver microsomes were thawed in a water bath at 37° C. and kept on ice until use. The microsomes were then diluted with 50 mM potassium phosphate buffer pH 7.4 to a protein concentration of 0.56 mg/mL. To prepare test and control items in final incubation conditions, 5 μL of test compound and positive control working solutions were added to 445 μL of microsomes incubation mixture at 0.56 mg/mL and 50 μL of regenerating system.
As it relates to the automated incubation procedure for microsomes incubation, the following procedure was followed. Briefly, 150 μL of quenching solution (ACN containing an appropriate Internal Standard, i.e. Rolipram and Diclofenac for positive and negative ion mode, respectively) was manually dispensed or dispensed by using the Hamilton system in each well of 96 deep well 1 mL plates. Next, 800-1000 μL-aliquots of NADPH regenerating system were pre-warmed at 37° C. for 5 minutes. 5 μL of 50 µM test items and control were added to 445 μL of the 0.56 mg/mL microsomes solution, and the incubation mixture was pre-warmed in a 96 deep well 2 mL plate (incubation plate) at 37° C. for 5 minutes. The incubation reactions were initiated by adding 50 μL of pre-warmed NADPH regenerating system to the incubation mixtures.
50 μL-aliquots were sampled from incubation mixtures at: 0, 3, 10, 15, 30, and 45 minutes. The samples were centrifuged at 3,000 rpm for 10 minutes and further diluted in order to optimize the analytical condition prior to the LC MS/MS or Rapid Fire-MS/MS analysis. Incubations of test items were run in duplicate (n=2) with a single positive control (n=1). For sample analysis, an LC-MS/MS system was used to monitor the test samples/control to internal standard peak area ratios as representative of the test or control item's concentration. Data from test item incubation was processed to give mean values where applicable. Metabolic stability was calculated from the ratio of peak area of the remaining test or control item with internal standard versus time.
Peak areas for test and control items were integrated using Integrator Software from Agilent or Analyst or MultiQuant Software from AB SciexTM and were exported to XLFit or Morphit (The Edge), which were designed to calculate in vitro metabolic stability parameters. The integrated peak areas of the test and control items at the selected time points were divided by the respective peak areas of the IS, and the percent of parent remaining was calculated by normalizing the peak area ratio of parent to IS at 0 min. Observed rate constant (kobs) for parent degradation was calculated by determining the slope of the line of the graph of the natural log of percentage parent remaining versus time of incubation. This was scaled for the protein in the incubation relative to that in the liver.

[2] = recombinant human isoenzyme, n=2, read-out: Inhibition of CYP3A4, IC50

T1 sequence (P08684 whole entry): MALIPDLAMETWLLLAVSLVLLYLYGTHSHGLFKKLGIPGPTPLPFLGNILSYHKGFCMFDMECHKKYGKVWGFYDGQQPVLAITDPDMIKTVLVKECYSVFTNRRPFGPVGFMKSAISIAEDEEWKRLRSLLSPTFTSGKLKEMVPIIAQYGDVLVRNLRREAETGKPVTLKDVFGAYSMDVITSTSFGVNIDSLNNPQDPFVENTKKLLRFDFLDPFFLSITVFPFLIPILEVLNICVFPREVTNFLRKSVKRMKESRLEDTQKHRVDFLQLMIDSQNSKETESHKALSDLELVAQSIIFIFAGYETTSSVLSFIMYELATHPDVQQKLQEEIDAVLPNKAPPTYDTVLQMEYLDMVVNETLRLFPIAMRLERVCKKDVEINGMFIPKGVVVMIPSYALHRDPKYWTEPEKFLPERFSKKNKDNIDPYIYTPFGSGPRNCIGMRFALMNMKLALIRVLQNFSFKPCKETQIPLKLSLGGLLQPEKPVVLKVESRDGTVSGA

| Structure (SMILES) | IC50 (CYP3A4; [2]) [µM] | microsomal CLint at 0.5 μM [1] [µL/min/mg] | Cl (μL/min/mg protein) - Rat Microsomes [1] | IC50 (CYP3A4) [µM] |
| --- | --- | --- | --- | --- |
| COC(=O)c1cc2c(cc1OC)CC(N)C2 (stereo not shown) [CMP-401] | > 50 | 121 | – | – |
| COC(=O)COc1ccc2c(c1)CC(N)C2 (stereo not shown) [CMP-402] | > 50 | 2050 | greatest clearance | – |
| COC(=O)c1ccc2c(c1)CC(N)C2 (stereo not shown) [CMP-405, 2-aminoindane-5-methylcarboxylate] | > 50 | 143 | – | – |
| CNC(C)Cc1ccc2c(c1)OCO2 (stereo not shown) [MDMA] | > 50 | – | 395 μL/min/mg protein | – |
| COc1ccc2c(c1)CC(N)C2 (stereo not shown) [MEAI, 5-methoxy-2-aminoindane] | – | 156 | – | > 50 |
| COc1cc2c(cc1C)CC(N)C2 (stereo not shown) [MMAI, 5-methoxy-6-methyl-2-aminoindane] | – | 200 | – | > 50 |
